Consider four substances from article PMC4794652, “Identification of E-cadherin signature motifs functioning as cleavage sites for Helicobacter pylori HtrA” (Scientific Reports, 2016).

“Also recorded” adds a separate entry of the source. No end group written: not given here.

The test system of experiment [1] is HtrA wild-type (H. pylori). The experiment can be described thus: Direct peptide binding to immobilised HtrA by surface plasmon resonance (SPR). Particulars: for direct binding to immobilised HtrA (SPR response) / concentration-dependent SPR binding to HtrA, C-terminal carboxyl vs amide: SPR-2, 25 °C, 25 μl/min; for direct binding to immobilised HtrA (SPR response): HBS-P (10 mM HEPES-buffered saline, 150 mM NaCl, 0.005% Tween), against significance threshold, in words (Fig. 4C); for concentration-dependent SPR binding to HtrA, C-terminal carboxyl vs amide: HBS-P, in words (Fig. 4D, S3B, S3C). The method, then: Affinity studies were performed on a Sierra Sensors GmbH SPR-2 instrument. Measurements were performed at 25 °C with a flow rate of 25 μl/min. Carboxymethyl dextran matrix high-density sensor chips (SPR-2 Affinity Sensor HC, batch 10-BC-04-154-A, Sierra Sensors) were used to immobilise 20 μg/ml HtrA wild-type (wt) in 10 mM HEPES (HEPES buffer 1 M solution, pH 7.3, Fisher Scientific) by adding 198 μl amine coupling with an activation solution (200 mM N-ethyl-3-(3-dimethylaminopropyl)-carbodiimide [EDC] and 50 mM N-hydroxysuccinimide [NHS]). The SPR sensor surface was loaded with 100 μl protein and subsequently treated by injecting 192 μl of 1 M ethanolamine at pH 8.5 for inactivation of excess coupling groups. HBS-P (10 mM HEPES-buffered saline, 150 mM NaCl, 0.005% Tween) served as running and sample buffer for peptide measurements. Peptide samples were directly dissolved in HBS-P buffer. The experiments with the non-peptidic compounds were performed utilising HBS-PD running buffer (10 mM HEPES-buffered saline with 3% DMSO, 150 mM NaCl, 0.005% Tween).

Experiment [2] relates to H. pylori HtrA. The experiment can be described thus: In vitro HtrA-mediated E-cadherin (rCdh1) cleavage, inhibition by peptides (Western blot). In kind it is biochemical. The method, then: (§1) Proteins were separated by SDS PAGE and analysed by Western blot using specific antibodies against HtrA[21], the extracellular domains EC5 (H108, Santa Cruz Biotechnology and ab40772, Abcam), EC1 (SHE78-7, Invitrogen) and EC2 (HecD1, Calbiochem) of E-cadherin, or the intracellular domain (24E10, Cell Signaling). His6-tagged proteins were analysed using an anti-His5-antibody (Qiagen). GAPDH (Cell Signaling) and β-actin (Sigma) were detected as loading controls. Where indicated, signals of protein bands were quantified using the ImageLab software (BioRad). Graphical presentation and statistical evaluations (Student’s t-test) were performed with GraphPad Prism 5 and p-values of ***p ≤ 0.001, **p ≤ 0.01 and *p ≤ 0.05 were considered statistically significant.
Purification of recombinant H. pylori HtrA and in vitro cleavage assays have been described elsewhere. Briefly, 200 ng recombinant HtrA was incubated with 50 ng recombinant hCdh1 (R&D Systems) in 50 mM HEPES pH 7.4 and 100 μM EDTA for 16 h (or for the indicated time periods) at 37 °C. Where indicated, test peptides were added.

Experiment [3] has as its system H. pylori HtrA. The experiment can be described thus: Competition experiment: interference with P1-mediated HtrA inhibition (rCdh1 cleavage, Western blot). In kind it is biochemical. Particulars: 100 μM peptides, 50 ng rCdh1, 200 ng rHtrA, 16 h, 37 °C, in words (Fig. S4B). The method, then: as §1
Purification of recombinant H. pylori HtrA and in vitro cleavage assays have been described elsewhere. […]
Figure S4. […] (A) Synthesized peptides based on the most frequent detected peptide during label-free mass spectrometry-based proteomic analysis. […] The cleavage fragments were analyzed by Western blot and detected using an antibody against the EC5. (D) Quantitative analysis of the relative amount of β-actin in whole cell lysates (WCL) of the H. pylor i-infected cells by blot densitometry from […]
1 Niessen, C. M. & Gumbiner, B. M. Cadherin-mediated cell sorting not determined by binding or […]

Experiment [4] has as its system HtrA in H. pylori-infected AGS cells. The experiment can be described thus: Inhibition of HtrA in H. pylori-infected AGS cells transfected with hCdh1 (formation of 90 kDa hCdh1 NTF fragment). Particulars: transfected AGS cells expressing hCdh1, H. pylori infection 16 h, 50 μl supernatant; blot densitometry, three independent experiments; in words (Fig. 5B). The format is cell-based, H. pylori; human (AGS cells). The method, then:
Figure 5 Inhibition of HtrA-mediated E-cadherin cleavage. (A) 50 ng rCdh1 was incubated with 200 ng HtrA and indicated concentrations of P1. rCdh1 fragments and HtrA were detected using specific antibodies. (B) Transfected AGS cells expressing hCdh1 were infected with H. pylori (Hp) or left untreated (–) for 16 h. 50 μl aliquots of the supernatants were separated by SDS PAGE and blotted onto membranes. The 90 kDa hCdh1^NTF fragment was detected by Western blots. The relative amount of hCdh1^NTF fragment was quantified by blot densitometry from three independent experiments. […] (C) Polarised MKN-28 cells grown on transwell filters were infected with H. pylori in the presence and absence of peptide P1 at different concentrations (100 μM, 200 μM, 500 μM). Bacteria that had transmigrated across the MKN-28 monolayer on the filter were counted (n = 3, mean ± std dev).
The human gastric adenocarcinoma cell line AGS is E-cadherin-negative and was derived from an adenocarcinoma of the stomach of a person (ECACC, 89090402). […] Adherence of H. pylori was quantitated in a cfu (colony-forming unit) assay. […] The number of cfu was determined by growth on agar plates for 72 h. […] The number of transmigrated bacteria was determined as cfu by taking aliquots from the basal chambers. […]

The test system of experiment [5] is H. pylori transmigration across MKN-28 cells. In words: Transmigration of H. pylori across polarised MKN-28 cell monolayer (transwell filter assay). The format is cell-based, H. pylori; human (MKN-28 cells). Particulars: 100 μM, 200 μM, 500 μM P1; MOI 50; cfu from basal chamber; n = 3, mean ± std dev; in words (Fig. 5C). From the text:
(§2) The human gastric adenocarcinoma cell line AGS is E-cadherin-negative and was derived from an adenocarcinoma of the stomach of a person (ECACC, 89090402). AGS cells expressing hCdh1 were generated by transfection using a plasmid containing E-cadherin wild-type cDNA[50] which has been kindly provided by Rohan D. Teasdale (University of Queensland, Australia). E-cadherin-positive MKN-28 cells (JCRB, 0253, obtained from the Max-Planck Institute for Infection Biology) were originally described as being isolated from a moderately differentiated tubular adenocarcinoma and have been frequently used to study E-cadherin-dependent processes. The gastric epithelial NCI-N87 cells (ATCC, CRL-5822) were included as an additional E-cadherin-expressing cell line[24] and were derived from metastasis in the liver. All cells have been described previously[24][51] and were grown in RPMI 1640 medium containing 4 mM glutamine (Invitrogen) and 10% FCS (Sigma) in a humidified atmosphere at 37 °C. […] Adherence of H. pylori was quantitated in a cfu (colony-forming unit) assay. […] The number of cfu was determined by growth on agar plates for 72 h. […] The number of transmigrated bacteria was determined as cfu by taking aliquots from the basal chambers. […]

The test system of experiment [6] is HtrA in H. pylori infections of several other cell lines. In words: Inhibition of hCdh1 NTF formation in H. pylori infections of several other cell lines. The format is cell-based. The settings on record: different infection doses, data not shown, in words.
From the text: as §2

As to NDNAPIPEPR [Peptide P5], in experiment [1], the “direct binding to immobilised HtrA (SPR response)” value is “positive binding response above the significance threshold”.
Turning to “TGTLLLI [Peptide P1_NT, short peptide P1_NT, contains the hydrophobic amino acid stretch TGTLLLI]”, in experiment [2] (100 μM peptide, 50 ng rCdh1, 200 ng rHtrA, 16 h, 37 °C, in words (Fig. S4B)), the “blocking of HtrA-induced E-cadherin cleavage, 7-residue N-terminal peptides” value is given as “None of these peptides blocked HtrA-induced E-cadherin cleavage”. Further, the “interference with P1-mediated HtrA inhibition” value in experiment [3] is “None of these peptides blocked HtrA-induced E-cadherin cleavage or interfered with P1-mediated HtrA inhibition”.
TGTLLLILSDVNDNAPIPEPR [Peptide P1]: the “inhibition of in vitro HtrA-mediated E-cadherin cleavage” value in experiment [2] (100 μM peptide, 200 ng HtrA, 50 ng rCdh1, 50 mM HEPES pH 7.4, 100 μM EDTA, 16 h, 37 °C, Western blot, in words (Fig. 4A,B)) is given as “effectively inhibited in vitro HtrA-mediated E-cadherin cleavage; also recorded: efficiently inhibited HtrA-mediated E-cadherin cleavage”. Besides, the “inhibition of HtrA-mediated rCdh1 cleavage, concentration dependence” value in experiment [2] (indicated concentrations of P1, 50 ng rCdh1, 200 ng HtrA, Western blot, in words (Fig. 5A)) is reported as “strongly inhibited HtrA-mediated rCdh1 cleavage in a concentration-dependent manner”. The “inhibition of HtrA-mediated E-cadherin cleavage in vitro (summary)” value in experiment [2] (summary statement without concentration, in words) was “efficiently blocked E-cadherin cleavage in vitro”. For the same substance, in experiment [1], the “direct binding to immobilised HtrA (SPR response)” value is “strong binding”. For the same substance, in experiment [1] (listed as P1-OH), the “concentration-dependent SPR binding to HtrA, C-terminal carboxyl vs amide” value was “concentration-dependent binding; also recorded: stronger SPR signals; also recorded: greater SPR response than its amide counterpart”. The “binding specificity for HtrA” value in experiment [1] (in words) is recorded as “binds with high specificity”. In addition, the “formation of hCdh1 NTF fragment (bioactivity in H. pylori-infected AGS cells)” value in experiment [4] is on record as “significant dose-dependent decrease in the formation of the hCdh1^NTF; also recorded: weaker, but still significant at higher concentrations”. The “H. pylori transmigration across polarised MKN-28 monolayer” value in experiment [5] is “strong concentration-dependent reduction of H. pylori transmigration; also recorded: inhibition of H. pylori transmigration”. Besides, in experiment [6], the “decrease in formation of hCdh1 NTF in other cell lines and infection doses” value is “This effect was also observed in H. pylori infections of several other cell lines and at different infection doses”.
For “P1-NH2: P1 with a C-terminal alpha-amide (TGTLLLILSDVNDNAPIPEPR-NH2) [Peptide P1-NH2]”, the “concentration-dependent SPR binding to HtrA, C-terminal carboxyl vs amide” value in experiment [1] is recorded as “concentration-dependent binding”.
